From PubChem BioAssay AID1963830 (Molecular Pharmacology Branch, DTP, NCI, 2024)

Tested on: 922993-354-T-J3-PDC complex spheroid viability
Test: Anticancer human tumor 922993-354-T-J3-PDC patient-derived endometrial carcinoma cell line growth inhibition [POLQ]
Settings: for IC50: curve of first compound; for viability, T/C: stronger effect = lower value
In short: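 Complex spheroid viability model combining PDC tumour cells with endothelial (HUVEC) and MSC stromal cells. Novobiocin, ART-558 or RP6685 were tested singly and in combination with standard and investigational anticancer drugs. Each was titrated in half-log steps from near clinical Cmax, or from 10 microM where Cmax was unknown.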

[1] = second compound 0.0316 µM, first compound 0.0316 µM
[2] = second compound 0.0316 µM, first compound 0.1 µM
[3] = second compound 0.0316 µM, first compound 0.316 µM
[4] = second compound 0.0316 µM, first compound 1 µM
[5] = second compound 0.0316 µM, first compound 3.16 µM
[6] = second compound 0.0316 µM, first compound 10 µM
[7] = second compound 0.1 µM, first compound 0.0316 µM
[8] = second compound 0.1 µM, first compound 0.1 µM
[9] = second compound 0.1 µM, first compound 0.316 µM
[10] = second compound 0.1 µM, first compound 1 µM
[11] = second compound 0.1 µM, first compound 3.16 µM
[12] = second compound 0.1 µM, first compound 10 µM
[13] = second compound 0.316 µM, first compound 0.0316 µM
[14] = second compound 0.316 µM, first compound 0.1 µM
[15] = second compound 0.316 µM, first compound 0.316 µM
[16] = second compound 0.316 µM, first compound 1 µM
[17] = second compound 0.316 µM, first compound 3.16 µM
[18] = second compound 0.316 µM, first compound 10 µM
[19] = second compound 1 µM, first compound 0.0316 µM
[20] = second compound 1 µM, first compound 0.1 µM
[21] = second compound 1 µM, first compound 0.316 µM
[22] = second compound 1 µM, first compound 1 µM
[23] = second compound 1 µM, first compound 3.16 µM
[24] = second compound 1 µM, first compound 10 µM
[25] = second compound 3.16 µM, first compound 0.0316 µM
[26] = second compound 3.16 µM, first compound 0.1 µM
[27] = second compound 3.16 µM, first compound 0.316 µM
[28] = second compound 3.16 µM, first compound 1 µM
[29] = second compound 3.16 µM, first compound 3.16 µM
[30] = second compound 3.16 µM, first compound 10 µM
[31] = second compound 10 µM, first compound 0.0316 µM
[32] = second compound 10 µM, first compound 0.1 µM
[33] = second compound 10 µM, first compound 0.316 µM
[34] = second compound 10 µM, first compound 1 µM
[35] = second compound 10 µM, first compound 3.16 µM
[36] = second compound 10 µM, first compound 10 µM
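Note: spheroids exposed to the agents for one week.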
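Throughout, for viability, T/C: 100% = DMSO vehicle control wells.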

CC1COCCN1c1cc(-c2ccnn2C)c2ccnc(-c3ccn[nH]3)c2n1 (stereo unspecified) + Nc1ccc(C#CCN(C(=O)Cc2ncc(C(F)(F)F)cc2C(F)(F)F)c2ccc(F)cc2)nn1
IC50 (second compound 0.0316 µM): 0.68 µM
IC50 (second compound 0.1 µM): 0.653 µM
IC50 (second compound 0.316 µM): 0.717 µM
IC50 (second compound 1 µM): 0.729 µM
IC50 (second compound 3.16 µM): 0.593 µM
IC50 (second compound 10 µM): 0.449 µM
viability, T/C [1]: 107%
viability, T/C [2]: 102%
viability, T/C [3]: 72.5%
viability, T/C [4]: 38.3%
viability, T/C [5]: 21%
viability, T/C [6]: 13.9%
viability, T/C [7]: 109%
viability, T/C [8]: 95.5%
viability, T/C [9]: 70.7%
viability, T/C [10]: 40%
viability, T/C [11]: 14.2%
viability, T/C [12]: 14.5%
viability, T/C [13]: 104%
viability, T/C [14]: 93.1%
viability, T/C [15]: 72%
viability, T/C [16]: 42.1%
viability, T/C [17]: 18.9%
viability, T/C [18]: 13.8%
viability, T/C [19]: 102%
viability, T/C [20]: 92.1%
viability, T/C [21]: 78.2%
viability, T/C [22]: 39.2%
viability, T/C [23]: 16.8%
viability, T/C [24]: 10.1%
viability, T/C [25]: 101%
viability, T/C [26]: 89.5%
viability, T/C [27]: 69.2%
viability, T/C [28]: 33.8%
viability, T/C [29]: 19.3%
viability, T/C [30]: 11.5%
viability, T/C [31]: 99.1%
viability, T/C [32]: 80.2%
viability, T/C [33]: 64.7%
viability, T/C [34]: 23.1%
viability, T/C [35]: 17.5%
viability, T/C [36]: 13.2%

CC1COCCN1c1cc(C2(S(C)(=N)=O)CC2)nc(-c2ccnc3[nH]ccc23)n1 (stereo unspecified) + Nc1ccc(C#CCN(C(=O)Cc2ncc(C(F)(F)F)cc2C(F)(F)F)c2ccc(F)cc2)nn1
IC50 (second compound 0.0316 µM): > 10 µM
IC50 (second compound 0.1 µM): > 10 µM
IC50 (second compound 0.316 µM): > 10 µM
IC50 (second compound 1 µM): > 10 µM
IC50 (second compound 3.16 µM): > 10 µM
IC50 (second compound 10 µM): 6.37 µM
viability, T/C [1]: 104%
viability, T/C [2]: 106%
viability, T/C [3]: 98.7%
viability, T/C [4]: 106%
viability, T/C [5]: 95.5%
viability, T/C [6]: 88.5%
viability, T/C [7]: 107%
viability, T/C [8]: 105%
viability, T/C [9]: 101%
viability, T/C [10]: 102%
viability, T/C [11]: 105%
viability, T/C [12]: 89.2%
viability, T/C [13]: 105%
viability, T/C [14]: 101%
viability, T/C [15]: 101%
viability, T/C [16]: 97.2%
viability, T/C [17]: 105%
viability, T/C [18]: 91.6%
viability, T/C [19]: 102%
viability, T/C [20]: 99%
viability, T/C [21]: 102%
viability, T/C [22]: 98.9%
viability, T/C [23]: 101%
viability, T/C [24]: 89.6%
viability, T/C [25]: 103%
viability, T/C [26]: 95%
viability, T/C [27]: 102%
viability, T/C [28]: 95.5%
viability, T/C [29]: 101%
viability, T/C [30]: 85.3%
viability, T/C [31]: 98.3%
viability, T/C [32]: 96.5%
viability, T/C [33]: 98.7%
viability, T/C [34]: 92.9%
viability, T/C [35]: 81.6%
viability, T/C [36]: 29.9%

COc1ccc([C@@H](O)c2cc(-c3ncnc4cc(N5CCOCC5)ccc34)c(F)cc2Cl)nn1 + Nc1ccc(C#CCN(C(=O)Cc2ncc(C(F)(F)F)cc2C(F)(F)F)c2ccc(F)cc2)nn1
IC50 (second compound 0.0316 µM): > 10 µM
IC50 (second compound 0.1 µM): > 10 µM
IC50 (second compound 0.316 µM): > 10 µM
IC50 (second compound 1 µM): > 10 µM
IC50 (second compound 3.16 µM): > 10 µM
IC50 (second compound 10 µM): > 10 µM
viability, T/C [1]: 103%
viability, T/C [2]: 103%
viability, T/C [3]: 98%
viability, T/C [4]: 100%
viability, T/C [5]: 91.3%
viability, T/C [6]: 73.8%
viability, T/C [7]: 106%
viability, T/C [8]: 104%
viability, T/C [9]: 100%
viability, T/C [10]: 97.9%
viability, T/C [11]: 93.7%
viability, T/C [12]: 75.5%
viability, T/C [13]: 106%
viability, T/C [14]: 99.2%
viability, T/C [15]: 101%
viability, T/C [16]: 97.4%
viability, T/C [17]: 87.3%
viability, T/C [18]: 74.9%
viability, T/C [19]: 105%
viability, T/C [20]: 102%
viability, T/C [21]: 99.1%
viability, T/C [22]: 93.5%
viability, T/C [23]: 89.4%
viability, T/C [24]: 74.9%
viability, T/C [25]: 97.1%
viability, T/C [26]: 97%
viability, T/C [27]: 93.5%
viability, T/C [28]: 92.5%
viability, T/C [29]: 86.5%
viability, T/C [30]: 72%
viability, T/C [31]: 97.3%
viability, T/C [32]: 89%
viability, T/C [33]: 91.4%
viability, T/C [34]: 91.9%
viability, T/C [35]: 90.3%
viability, T/C [36]: 68.8%
